Experimental data as given in patent publication US20250101041A1, “POSITIVE ALLOSTERIC MODULATORS OF THE MUSCARINIC ACETYLCHOLINE RECEPTOR M4” (Vanderbilt University, priority 2022, published 2025).

How the values were obtained:
[1] = molecular target: T1, human mAChR M4 (Homo sapiens, UniProt P08173); assay: mAChR M4 cell-based functional assay: calcium mobilization (Fluo-4, FDSS), potentiation of EC20 acetylcholine response in hM4-Gqi5 CHO-K1 cells; conditions: human M4; for Emax at 30 µM: CHO-K1, % ACh maximum at 30 μM; for EC50: potentiation of EC20 acetylcholine response, calcium mobilization
T1 construct: expressed in transfected cells; host or cells: CHO-K1 (American Type Culture Collection), stably expressing hM4 and Gqi5
T1 sequence (P08173 1-479): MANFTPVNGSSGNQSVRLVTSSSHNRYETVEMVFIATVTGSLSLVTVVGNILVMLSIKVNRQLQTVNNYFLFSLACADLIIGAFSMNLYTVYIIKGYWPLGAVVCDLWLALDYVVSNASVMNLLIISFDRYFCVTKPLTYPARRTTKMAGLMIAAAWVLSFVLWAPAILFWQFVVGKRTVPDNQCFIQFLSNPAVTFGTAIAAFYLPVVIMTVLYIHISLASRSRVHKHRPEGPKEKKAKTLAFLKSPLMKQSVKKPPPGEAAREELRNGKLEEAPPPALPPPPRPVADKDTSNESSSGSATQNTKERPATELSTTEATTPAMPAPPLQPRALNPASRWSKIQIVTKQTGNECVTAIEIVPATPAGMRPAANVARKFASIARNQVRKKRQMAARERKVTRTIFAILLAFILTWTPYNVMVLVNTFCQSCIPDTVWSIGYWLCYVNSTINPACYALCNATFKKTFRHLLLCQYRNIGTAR
In short: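 CHO-K1 cells stably co-expressing human M4 and chimeric Gqi5, loaded with Fluo-4 AM (50 min, 37 °C). Compounds in 11-point 1:3 series added first; EC20 acetylcholine added at 144 s and again at 230 s. Calcium read on FDSS at 1 Hz; EC50 and Emax from four-parameter logistic fit of potentiated EC20 response.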

[2] = patients treated with AChE inhibitors such as tacrine; cited from earlier work
[3] = cited from earlier work
[4] = Alzheimer's disease patients; cited from earlier work

Cc1cc2nc(C(F)(F)F)cc(=O)n2nc1N1CCc2ncc(Nc3ccncc3F)cc2C1 [Compound 2-160, 7-(3-((3-fluoropyridin-4-yl)amino)-7,8-dihydro-1,6-naphthyridin-6(5H)-yl)-8-methyl-2-(trifluoromethyl)-4H-pyrimido[1,2-b]pyridazin-4-one]
Emax at 30 µM [1]: 92%
EC50 [1]: 0.008 µM

Cc1cc2nc(C)c(Cl)c(=O)n2nc1N1CCc2ncc(Nc3ccncc3F)cc2C1 [Compound 2-161, 3-chloro-7-(3-((3-fluoropyridin-4-yl)amino)-7,8-dihydro-1,6-naphthyridin-6(5H)-yl)-2,8-dimethyl-4H-pyrimido[1,2-b]pyridazin-4-one]
Emax at 30 µM [1]: 95%
EC50 [1]: 0.001 µM

[2H]C1([2H])Cc2ncc(Nc3cc(C)ncc3F)cc2C([2H])([2H])N1c1nn2c(=O)ccnc2cc1C [Compound 2-162, 7-(3-((5-fluoro-2-methylpyridin-4-yl)amino)-7,8-dihydro-1,6-naphthyridin-6(5H)-yl-5,5,7,7-d4)-8-methyl-4H-pyrimido[1,2-b]pyridazin-4-one]
Emax at 30 µM [1]: 96%
EC50 [1]: 0.016 µM

[2H]C1([2H])Cc2ncc(Nc3cccnc3C)cc2C([2H])([2H])N1c1nn2c(=O)ccnc2cc1C [Compound 2-163, 8-methyl-7-(3-((2-methylpyridin-3-yl)amino)-7,8-dihydro-1,6-naphthyridin-6(5H)-yl-5,5,7,7-d4)-4H-pyrimido[1,2-b]pyridazin-4-one]
Emax at 30 µM [1]: 79%
EC50 [1]: 0.388 µM

[2H]C1([2H])Cc2ncc(Nc3ccncc3F)cc2C([2H])([2H])N1c1nn2c(=O)ccnc2cc1C [Compound 2-164, 7-(3-((3-fluoropyridin-4-yl)amino)-7,8-dihydro-1,6-naphthyridin-6(5H)-yl-5,5,7,7-d4)-8-methyl-4H-pyrimido[1,2-b]pyridazin-4-one]
Emax at 30 µM [1]: 94%
EC50 [1]: 0.007 µM

[2H]C1([2H])Cc2ncc(Nc3ccncc3C)cc2C([2H])([2H])N1c1nn2c(=O)ccnc2cc1C [Compound 2-165, 8-methyl-7-(3-((3-methylpyridin-4-yl)amino)-7,8-dihydro-1,6-naphthyridin-6(5H)-yl-5,5,7,7-d4)-4H-pyrimido[1,2-b]pyridazin-4-one]
Emax at 30 µM [1]: 66%
EC50 [1]: 0.127 µM

[2H]C1([2H])Cc2ncc(Nc3ccccc3F)cc2C([2H])([2H])N1c1nn2c(=O)ccnc2cc1C [Compound 2-166, 7-(3-((2-fluorophenyl)amino)-7,8-dihydro-1,6-naphthyridin-6(5H)-yl-5,5,7,7-d4)-8-methyl-4H-pyrimido[1,2-b]pyridazin-4-one]
Emax at 30 µM [1]: 84%
EC50 [1]: 0.002 µM

Cc1cc2nccc(=O)n2nc1N1CCc2ncc(Oc3ccccc3F)cc2C1 [Compound 3-1, 7-(3-(2-fluorophenoxy)-7,8-dihydro-1,6-naphthyridin-6(5H)-yl)-8-methyl-4H-pyrimido[1,2-b]pyridazin-4-one]
Emax at 30 µM [1]: 75%
EC50 [1]: 0.04 µM

Cc1cc(=O)n2nc(N3CCc4ncc(Oc5ccccc5F)cc4C3)c(C)cc2n1 [Compound 3-2, 7-(3-(2-fluorophenoxy)-7,8-dihydro-1,6-naphthyridin-6(5H)-yl)-2,8-dimethyl-4H-pyrimido[1,2-b]pyridazin-4-one]
Emax at 30 µM [1]: 80%
EC50 [1]: 0.055 µM

Cc1c(N2CCc3ncc(Oc4ccccc4F)cc3C2)nn2c(=O)ccnc2c1C [Compound 3-3, 7-(3-(2-Fluorophenoxy)-7,8-dihydro-1,6-naphthyridin-6(5H)-yl)-8,9-dimethyl-4H-pyrimido[1,2-b]pyridazin-4-one]
Emax at 30 µM [1]: 96%
EC50 [1]: 0.029 µM

Cc1c(N2CCc3ncc(OCCN4CCOC4=O)cc3C2)nn2c(=O)ccnc2c1C [Compound 3-4, 3-(2-((6-(8,9-Dimethyl-4-oxo-4H-pyrimido[1,2-b]pyridazin-7-yl)-5,6,7,8-tetrahydro-1,6-naphthyridin-3-yl)oxy)ethyl)oxazolidin-2-one]
Emax at 30 µM [1]: 54%
EC50 [1]: 1.06 µM

Cc1c(N2CCc3ncc(P(C)(C)=O)cc3C2)nn2c(=O)ccnc2c1C [Compound 3-5, 7-(3-(Dimethylphosphoryl)-7,8-dihydro-1,6-naphthyridin-6(5H)-yl)-8,9-dimethyl-4H-pyrimido[1,2-b]pyridazin-4-one]
Emax at 30 µM [1]: 77%

Nc1c2c(nc3ccccc13)CCCC2 [tacrine]
patients with elevated liver transaminases (hepatotoxicity) [2]: about 30%

CCCCCCOc1nsnc1C1=CCCN(C)C1 [xanomeline]
catalepsy ([3]; animal models): without causing catalepsy
activity in animal models with similar profiles to known antipsychotic drugs [3]: active
psychotic behavioral symptoms such as delusions, suspiciousness, vocal outbursts, and hallucinations [4]: reduce psychotic behavioral symptoms
treatment induced side effects [4]: gastrointestinal effects
